In article PMC11106742, “Computational Design of Cyclic Peptide Inhibitors of a Bacterial Membrane Lipoprotein Peptidase” (ACS Chemical Biology, 2024) one finds MIC and IC50 data, which are given here for 3 compounds.

In one assay the test system is E. coli ATCC25922. Description: microbe, parasite or virus in culture. It is filed as cell-based, Escherichia coli. Here is the method:
(§1) MIC values were determined in cation-adjusted Mueller-Hinton broth using the broth microdilution method according to CLSI guidelines. Plates were incubated for 16 to 24 h at 37 °C.
(§2) Six biological replicates were performed across three different 2-fold dilution series, starting at concentration of 100 µg/ml, 80 µg/ml or 64 µg/ml. The lowest concentration of antimicrobial inhibiting growth was taken as the MIC. This was established by visual inspection of the medium after the incubation period with a lack of turbidity of the growth medium indicating no growth.[3] […]

A further assay relates to P. aeruginosa 950. Briefly: microbe, parasite or virus in culture. In kind it is cell-based, Pseudomonas aeruginosa. The procedure: as §1, §2
The next assay relates to A. baumannii AB17978. Description: microbe, parasite or virus in culture. It is filed as cell-based, Acinetobacter baumannii. The procedure:
as §1, §2

For another assay, the system named is A. baumannii AB5075. Description: microbe, parasite or virus in culture. It is filed as cell-based, Acinetobacter baumannii. Here is the method: as §1, §2
A further assay deals with T1, PaLspA (Pseudomonas aeruginosa, UniProt Q9HVM5).
T1 construct: made in house
T1 sequence (Q9HVM5 1-169): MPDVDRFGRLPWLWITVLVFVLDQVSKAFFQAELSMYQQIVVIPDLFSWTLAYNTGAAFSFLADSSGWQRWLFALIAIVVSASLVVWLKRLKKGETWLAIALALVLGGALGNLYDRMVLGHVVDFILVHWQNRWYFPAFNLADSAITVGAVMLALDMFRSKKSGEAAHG
Description: biochemical. Here is the method: These analogues were tested for activity against PaLspA using an in vitro fluorescence resonance energy transfer (FRET) activity assay.[21] LspA inhibition was detected by a change in fluorescence upon cleavage of a FRET peptide substrate containing an N-terminal quencher moiety and a C-terminal fluorophore.
(A) Structures of G2a and G2d. (B) Results of the FRET dose–response assays. PaLspA concentration was 40 nM, FRET substrate concentration was 50 μM, and the concentration of inhibitors globomycin, G2a, and G2d ranged from 0–3,000 nM. (C) SDS-PAGE gels and quantitation of the PaLspA gel-shift dose–response assays. ppICP concentration was 12 μM, DOPG concentration was 600 μM, and Lgt concentration was 1.2 μM. The Lgt-catalyzed reaction was allowed to proceed for 60 min at 37 °C, after which inhibitors (0–1000 nM) were added. The PaLspA reaction was initiated by the addition of 100 nM enzyme. The LspA reaction was allowed to proceed for 30 min at 37 °C before being quenched with SDS-PAGE loading buffer (62.5 mM Tris/HCl pH 6.8, 2.5% (w/v) SDS, 0.002% (w/v) bromophenol blue, 0.5 M β-mercaptoethanol, 10% (v/v) glycerol). Quantitation of the gel-shift assays was performed using Image Lab, and data were plotted using GraphPad Prism.
Materials: All reagents were obtained from commercial sources and used without additional purification. All aqueous solutions were prepared using ultrapure laboratory grade water (deionized, filtered, and sterilized) obtained from an in-house ELGA water purification system. […]
Expression and purification of PaLspA, Lgt, EcLspA and ppICP: PaLspA, Lgt and pre-proICP (ppICP) were expressed and purified using previously published protocols (Vogely et al, 2016).[1] EcLspA was expressed and purified as described for PaLspA, with the following modification. The lysis buffer was 50 mM Hepes pH 7.5, 150 mM NaCl, 1 mM TCEP, 10 %(v/v) glycerol. Isolated membranes, containing EcLspA, were solubilized with 1 %(v/v) FC12 for 2 h at […]

By IC50 is commonly meant the concentration that inhibits the measured activity by half. The low end stands for greater potency in that assay, the high end for weaker potency in that assay.

Converted amounts (≈) assume the structure as drawn. Like-named read-outs stand apart in the source and are kept apart here. Numbered stars: 1 amine (or outer) side, 2 acyl side, 3 side chain; on linkers, the order of the positions; unused ones are H or OH. Square brackets hold non-standard residues; d marks the D form. Peptide text beside a SMILES is read from it. X1 = CCCCCCCCN([C@@H](C)C(=O)[*:2])[*:1]; Gly(N-dodecyl) = CCCCCCCCCCCCNCC(=O)O; aIle = CC[C@@H](C)[C@H](N)C(=O)O; aThr = C[C@H](O)[C@H](N)C(=O)O; NMeL = CN[C@@H](CC(C)C)C(=O)O; βAla = NCCC(=O)O

On to `CCCCCCCCN1C(=O)CCNC(=O)[C@H]([C@H](C)O)NC(=O)[C@H](CO)NC(=O)[C@H]([C@H](C)CC)NC(=O)[C@H](CC(C)C)N(C)C(=O)[C@@H]1C` [G2a] (cyclo([NMeL][aIle]S[aThr][βAla][X1])), for which the MIC against E. coli ATCC25922 (ATCC25922) is 32 µg/mL (≈ 46.9 µM); in the assay on P. aeruginosa 950 (950), 32 µg/mL (≈ 46.9 µM); against A. baumannii AB17978 (AB17978), 12.5 µg/mL (≈ 18.3 µM); against A. baumannii AB5075 (AB5075) it was 16 µg/mL (≈ 23.4 µM). The compound further returned an IC50 on PaLspA of 304 ± 62 nM.

Turning to `CCCCCCCCCCCCN1CC(=O)N(C)[C@@H](CC(C)C)C(=O)N[C@@H]([C@H](C)CC)C(=O)N[C@@H](CO)C(=O)N[C@@H]([C@H](C)O)C(=O)NCCC1=O` [G2d] (cyclo([NMeL][aIle]S[aThr][βAla][Gly(N-dodecyl)])), the MIC stood at 32 µg/mL (≈ 44.1 µM) with E. coli ATCC25922 (ATCC25922), 32 µg/mL (≈ 44.1 µM) against P. aeruginosa 950 (950), 16 µg/mL (≈ 22.1 µM) against A. baumannii AB17978 (AB17978) and 16 µg/mL (≈ 22.1 µM) with A. baumannii AB5075 (AB5075). In addition, at PaLspA, the IC50 was 157 ± 25 nM.

Take `CCCCCC[C@H]1OC(=O)CNC(=O)[C@H]([C@H](C)O)NC(=O)[C@H](CO)NC(=O)[C@H]([C@H](C)CC)NC(=O)[C@H](CC(C)C)N(C)C(=O)[C@@H]1C` [globomycin, reference compound]: the MIC with E. coli ATCC25922 (Escherichia coli, E. coli ATCC25922, cation-adjusted Mueller-Hinton broth, 16 to 24 h, 37 °C, read-out: MIC) is 10 µg/mL (≈ 15.2 µM); in the assay with P. aeruginosa 950 (Pseudomonas aeruginosa, P. aeruginosa 950, cation-adjusted Mueller-Hinton broth, 16 to 24 h, 37 °C, read-out: MIC), 16 µg/mL (≈ 24.4 µM); with A. baumannii AB17978 (Acinetobacter baumannii, A. baumannii AB17978, cation-adjusted Mueller-Hinton broth, 16 to 24 h, 37 °C, read-out: MIC), 16 µg/mL (≈ 24.4 µM); in the assay on A. baumannii AB5075 (Acinetobacter baumannii, A. baumannii AB5075, cation-adjusted Mueller-Hinton broth, 16 to 24 h, 37 °C, read-out: MIC) it was 32 µg/mL (≈ 48.8 µM). The compound further showed an IC50 on PaLspA of 40 nM.
